The source of these data is US4450173A, “Compounds and method for treatment or prophylaxis of cardiac disorders” (American Hospital Supply Corporation, priority 1982, dated 1984).

Like-named read-outs stand apart in the source and are kept apart here.

Data set [1] is described as follows: Disappearance in vitro in dog whole blood. In kind it is in vitro ADME. Conditions: 50 μg in 1 mL added to 1 mL dog whole blood, 37° C.; read-out: T1/2 Dog Whole Blood. On the procedure:
(§1) The rate of disappearance of a compound is expressed as the half-life (T1/2), which is the time period in which one-half of the initial amount of compound tested disappears. In each experiment, 1 mL of a solution containing 50 μg of the test compound was added to 1 mL of whole blood or 1 mL of a 33% (w/v) liver homogenate. […] At the designated time periods, the test mixtures were removed from the incubator and transferred to a 0° C. ice bath. Acetonitrile (2 mL) was immediately added and the mixtures were mixed to stop enzymatic hydrolysis. Zero time samples were prepared by adding 2 mL of acetonrile to denature the proteins prior to addition of the test compounds. […] The half life of each test compound was determined graphically by plotting the decrease in concentration as a function of time.

A short description of data set [2]: Disappearance in vitro in dog liver homogenate. The data set is classed as in vitro ADME. Conditions: 50 μg in 1 mL added to 1 mL of 33% (w/v) dog liver homogenate, 37° C.; read-out: T1/2 Dog Liver Homogenate. The procedure: as §1
In data set [3] the test system is guinea pig right atria and guinea pig tracheal strips. Nature of the data set: Cardioselectivity, KB tracheal/KB atrial. In kind it is cell-based. The procedure:
Several of the compounds of the present invention were tested for β-blocking activity in vitro using guinea pig right atria and guinea pig tracheal strips mounted in a tissue bath containing oxygenated (95% O2 -5% CO2) Krebs physiological salt solution at 37° C. Each tissue was suspended between a fixed glass rod and a Statham® Universal Transducer connected to a Beckman® recorder. Atria were allowed to beat spontaneously under a loading tension of approximately 0.5 gm. Intrinsic depressant for stimulant activity was determined for each compound by progressively increasing concentrations in the tissue baths at 60-minute intervals. Tissues were not washed between increments. […]. Changes in rate in response to isoproterenol were measured in the absence and presence of test compounds. Spiral strips of guinea pig trachea were suspended under 5 gm resting tension and incubated with phentolamine, tropolone and cocaine. Active tension was generated by addition of carbachol (3.0×10^-7 M) and decreases in tension in response to isoproterenol were quantitated. Cumulative concentration-response curves were produced with isoproterenol both before and after 60 minute incubation of test compounds with atria and trachea. The blocking potency of test compounds was estimated by computing pA2 values (-log KB) by the method of Furchgott, The Pharmacological Differentiation of Adrenergic Receptors, Ann. N.Y. Acad. Sci.; 139: 553-570 (1967). Comparison of blockade of right atrial and tracheal responses to isoproterenol permitted assessment of cardioselectivity of test compounds; […]. A ratio greater than one indicates cardioselectivity. […]

Data set [4] in a line: Disappearance in vitro in human whole blood. In kind it is in vitro ADME. Conditions: 50 μg in 1 mL added to 1 mL human whole blood, 37° C.; read-out: T1/2 Human Whole Blood. On the procedure: as §1
Data set [5] concerns the target guinea pig tracheal strips (Cavia porcellus, UniProt Q8K4Z4). Nature of the data set: cell-based. The data set is classed as cell-based. As to conditions: guinea pig trachea, carbachol tension, isoproterenol, 60 minute incubation, pA2 = -log KB. On the procedure: Each tissue was suspended between a fixed glass rod and a Statham® Universal Transducer connected to a Beckman® recorder. Atria were allowed to beat spontaneously under a loading tension of approximately 0.5 gm. Intrinsic depressant for stimulant activity was determined for each compound by progressively increasing concentrations in the tissue baths at 60-minute intervals. Tissues were not washed between increments. […] Changes in rate in response to isoproterenol were measured in the absence and presence of test compounds. Spiral strips of guinea pig trachea were suspended under 5 gm resting tension and incubated with phentolamine, tropolone and cocaine. Active tension was generated by addition of carbachol (3.0×10^-7 M) and decreases in tension in response to isoproterenol were quantitated. Cumulative concentration-response curves were produced with isoproterenol both before and after 60 minute incubation of test compounds with atria and trachea. The blocking potency of test compounds was estimated by computing pA2 values (-log KB) by the method of Furchgott, The Pharmacological Differentiation of Adrenergic Receptors, Ann. […] A ratio greater than one indicates cardioselectivity.

The subject of data set [6] is heart rate response to isoproterenol (β-receptor mediated tachycardia). Nature of the data set: Duration of β-blockade in vivo in anesthetized dogs, 40-minute infusion. Set-up: species or system dog. As to conditions: for ED50: Canis lupus familiaris, iv, 40 min, read-out: Potency (mg/kg/40 min); for 80% Recovery Time: after 40-minute infusion, normalized to 50% inhibition, dogs. The procedure: (§2) The duration of β-blockade was determined in vivo using pentobartital-anesthetized dogs instrumented for measurement of heart rate using a Beckman® cardiotachometer triggered electronically by a phasic aortic blood pressure signal. Both vagus nerves were severed in the cervical region and the animals were mechanically ventilated. Two experimental designs were used. The first employed a 40-minute infusion of test compound and the second used a 3-hour infusion of test compound. In the 40-minute model, isoproterenol was infused into a foreleg vein at the rate of 0.5 μg/kg/min to induce a β-receptor mediated tachycardia. Various doses of test compound are then infused into a femoral vein over a period of 40 minutes. This infusion was then terminated and recovery from blockade was quantitated. […] This cumulative dose is expressed as mg/kg and is an indication of potency. The time period required for 80% recovery of heart rate response for each dose of test drug was also measured to quantitate duration of action. […] Test compounds were dissolved in 0.9% NaCl and infused at a rate of 0.05 mL/kg/min or less. In the 3-hour infusion model, bolus doses of isoproterenol (0.4 μg/kg) were used to assess the degree of β-blockade and recovery from β-blockade after termination of the infusion. The doses were spaced at 10-minute intervals and were given before, during and following the infusion of test compounds. The infusion rate was adjusted so that at the end of the 3-hour infusion period the degree of isoproterenol inhibition averaged about 50% of control.

Data set [7] relates to heart rate response to isoproterenol. The data set is described as follows: Duration of β-blockade in vivo in anesthetized dogs, 3-hour infusion. Also on record: species or system dog. Conditions: for ED50: Canis lupus familiaris, iv, 3-hour infusion, read-out: Potency (mg/kg/180 min); for ED50 / % I (Percent inhibition of heart rate response to isoproterenol): bolus isoproterenol 0.4 μg/kg; for 80% Recovery Time: after 3-hour infusion; for % I (Percent inhibition of heart rate response to isoproterenol): end of 3-hour infusion. The procedure: as §2

Where [8] appears, read: ratio KB tracheal/KB atrial, greater than one indicates cardioselectivity.

guinea pig tracheal strips, sequence (Q8K4Z4 whole entry): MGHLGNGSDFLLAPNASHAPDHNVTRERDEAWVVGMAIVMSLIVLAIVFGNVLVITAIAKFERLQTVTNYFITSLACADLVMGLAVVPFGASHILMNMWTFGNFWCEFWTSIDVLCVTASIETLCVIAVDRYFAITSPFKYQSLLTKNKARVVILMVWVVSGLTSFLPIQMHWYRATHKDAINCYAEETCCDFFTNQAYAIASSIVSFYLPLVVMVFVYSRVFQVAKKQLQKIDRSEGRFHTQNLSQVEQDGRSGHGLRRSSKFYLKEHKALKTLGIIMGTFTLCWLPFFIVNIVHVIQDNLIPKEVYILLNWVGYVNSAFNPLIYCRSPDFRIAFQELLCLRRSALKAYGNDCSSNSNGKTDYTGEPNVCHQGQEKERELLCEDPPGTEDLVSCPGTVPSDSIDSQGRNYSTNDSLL

Take `CCOC(=O)CCCCNCC(O)COc1ccccc1C` (centres unmarked) [XII]: the results for the half-life in data set [1], in data set [2] and in data set [4] were 2.53 ± 1.18 h, 8.8 ± 6 min and 1.55 ± 0.5 h, respectively. The compound also displayed a Cardioselectivity in data set [3] of 2.5. Moreover, the “pA2 Trachea” value in data set [5] is reported as 7.4. Besides, the ED50 in data set [6] is 6.8 ± 3.7 mg/kg. For the same compound, the “80% Recovery Time” value in data set [6] is 11 ± 2 min.

For the compound `CCOC(=O)CCNCC(O)COc1cccc(Cl)c1` (centres unmarked) [XXII], in data set [1], the half-life stood at 0.667 ± 0.25 h. Moreover, the half-life in data set [2] was 3 ± 3 min. Also, the Cardioselectivity in data set [3] (setting [8]) worked out at 5. Moreover, the half-life in data set [4] stood at 1.97 ± 0.433 h. Also, the “pA2 Trachea” value in data set [5] turned out to be 6.7. In data set [7], the ED50 was found to be 8.5 mg/kg, the “80% Recovery Time” value was above 60 min and the “% I (Percent inhibition of heart rate response to isoproterenol)” value is reported as 77%.

Consider `CCOC(=O)CCNCC(O)COc1ccccc1Cl` (centres unmarked) [XXI], for which the half-life in data set [1] is 1.23 ± 0.35 h. Also, in data set [2], the half-life turned out to be 4 ± 3 min. In addition, the Cardioselectivity in data set [3] (setting [8]) was 6. Besides, the half-life in data set [4] was 2.12 ± 0.833 h. Further, in data set [5], the “pA2 Trachea” value is given as 6.6. In addition, in data set [7], the ED50 amounted to 10.9 mg/kg, the “80% Recovery Time” value was above 60 min and the “% I (Percent inhibition of heart rate response to isoproterenol)” value turned out to be 77%.

Take `CCOC(=O)CCNCC(O)COc1ccc(OC)cc1` (centres unmarked) [XXV]: the half-life is above 3 h in data set [1], 4 ± 2.5 min in data set [2] and 2.63 ± 0.133 h in data set [4]. In addition, the ED50 in data set [6] was 17.2 ± 1.2 mg/kg. Further, in data set [6], the “80% Recovery Time” value came to 11 ± 2 min.

On to `CCOC(=O)CCNCC(O)COc1ccccc1C` (centres unmarked) [X], for which the half-life in data set [1] was 3 h; in data set [2], 3 ± 1 min; in data set [4], 2.58 ± 0.15 h. The Cardioselectivity in data set [3] (setting [8]) was found to be 1. In data set [5], the “pA2 Trachea” value was 7.4. Further, the ED50 in data set [7] amounted to 6.8 mg/kg; in data set [6] it was 0.99 ± 0.27 mg/kg. The “80% Recovery Time” value in data set [7] was above 60 min; in data set [6] it was 14 ± 2 min. Also, the “% I (Percent inhibition of heart rate response to isoproterenol)” value in data set [7] was 69 ± 5%.
